Laboratory results: patent publication US20220354818A1, “METHODS FOR TREATING BRAIN INJURY OR COGNITIVE DYSFUNCTION BY PHARMACOLOGICAL ENHANCMENT OF M-TYPE POTASSIUM ION CURRENTS IN NEURONS” (Advanced Neuroresearch Therapeutics LLC, priority 2019, published 2022)

How the values were obtained:
mice subjected to rbTBI = test: Sleep-wake cycle analysis of EEG after rbTBI; type: in vivo, mouse; conditions: first week post-rbTBI
Method: To study the sleep-wake cycle, video/EEG records from the first 72 hour long record session (starting 2 days after the last injury) and the last 48 hour long record session (9 months after the last injury) were analyzed. To select one EEG channel from each animal/session for further analysis, we performed visual inspections of the raw local field potentials and their time-frequency decompositions (spectrograms) recorded from the three electrodes. EEG channels with signal saturation and background noise or artifacts were discarded. Then, the EEG channel with the highest percentage power at the 5-12 Hz frequency band was used to classify the sleep-wake cycle. Awake state (WK), slow wave sleep (SWS), rapid eye movement sleep REM), and transition/undetermined states (US) were classified based on two power spectral ratios, as described by Gervasoni et al., Global Forebrain Dynamics Predict Rat Behavioral States and Their Transitions, J Neurosci 24(49): 11137-11147 (2004). In brief, it first measures the relative power within fast (0.5-20/0.5-50 Hz) and slow (0.5-4.5/0.5-9 Hz) frequency bands and then generates a 2 dimensional (2D) state-space on which clusters are manually selected and associated with each state of the sleep-wake cycle.

c-Fos = c-Fos expression (FosTRAP mice) in hippocampal CA1 after blunt TBI; type: in vivo, mouse; conditions: tamoxifen 30 days after single blunt TBI; acute RTG treatment
Excerpt: Transgenic “FosTRAP” mice were used to study neuronal activity in sub-cortical regions following blunt TBI (the CCCI model as described above). These mice express the fluorescent protein, tdTomato, under the control of the neuronal promoter c-Fos, an “early intermediate gene” transcriptional factor that correlates well with heavy neuronal activity. Accordingly, whenever neurons express c-Fos, tdTomato is also expressed, allowing for an optical reporter of prior neuronal activity.
Because these transgenic mice express tdTopmato via the tamoxifen-inducible Cre/IoxP system, mice were injected (i.p.) with tamoxifen (75 mg/kg) 30 days after a single blunt TBI (i.e., CCCI), and samples were collected 5 days after injection.
Slices (200 μm) of each collected sample were infused with 4% (w/v) PFA for 10 minutes at RT, washed 5× in PBS and blocked with 8% (v/v) donkey serum (Sigma-Aldrich) diluted in PBS, 0.1% (v/v) Triton X-100 (Sigma-Aldrich), and 0.1% (v/v) Tween 20 (Thermo Fisher Scientific). […] A Nikon Eclipse FN1 microscope with 10× and 40× Plan Fluor objectives was used for detection of fluorescence. […] Cell count was obtained by non-biased automatic quantification with ImageJ. […] ROIs were determined automatically using the “analyze particles” function of ImageJ, with size set to 200-8000 and circularity set to 0.00-1.00.

M-channels = test: Voltage dependence of M-channels
[1] = tested on: mice subjected to one blunt TBI (CCCI); test: Dosage optimization: spontaneous myoclonic seizures after one blunt TBI (CCCI); type: in vivo, mouse; conditions: RTG 0.3, 1 and 3 mg/kg i.p. once 30 minutes post-TBI; second to fourth day
Method: An additional KCNQ2/3-specific compound, RL648_81 was also administered in the same manner (0.03 mg/kg, 0.1 mg/kg, and 0.3 mg/kg). […] To monitor the occurrence of spontaneous myoclonic seizures after, the mice were video/EEG monitored from the second to the fourth day after the TBI (72 hours total).

[2] = tested on: mice subjected to one blunt TBI, PTZ; test: Treatment window study: PTZ-induced seizure duration after one blunt TBI; type: in vivo, mouse
Method: Mice were video-EEG monitored for 24 hours after stimulation with a normally sub-seizure threshold dose of PTZ (35 mg/kg; s.c.) administered on the fifth day post-TBI, which caused the mice to respond with prolonged seizures. […] A TBI cohort (vehicle only) was also assessed for control purposes.

[3] = tested on: C57BL/6J mice subjected to controlled closed cortical impact (CCCI); test: Post-traumatic seizures after CCCI blunt TBI, video/EEG monitoring; type: in vivo, mouse; conditions: RTG 1.2 mg/kg i.p. 30 minutes post-TBI, video/EEG three days starting 24 hours after injury
Excerpt: Male and female mice were used for all experiments performed, except for GFAP, Iba1 and Fluro-Jade B histology experiments and for PSVue794 and Evans Blues imaging.
Animals were divided randomly among cohorts so that each cage included animals from all treatments.
The CCCI model was used to generate reproducible moderate blunt brain injury. This model has the advantages of producing focal contusion in which the skull remains intact. CCCI can most closely simulate blunt-head traumas resulting from falls, physical violence, or motor vehicle accidents and particularly in rodent models often produces spontaneous seizures within 24 hours.
A single trauma per mouse was employed. CCCI was delivered by a pneumatic impact device (Leica Biosystems) following a protocol previously published. A cylindrical probe of 5 mm diameter was used to deliver a calibrated impact to the skull, 1 mm depth over the right parietal cortex and a small portion of the caudal end of the right frontal cortex, at a velocity of 4.5 m/s to produce a moderate TBI. […]
To quantify seizure frequency and determine seizure susceptibility, mice of each cohort were implanted with electroencephalogram (EEG) electrodes 24 hours after CCCI or Sham. […]
Computer-assisted cortical EEGs was recorded and reviewed for the presence of seizures and epileptiform spikes. […] Detected events were visually confirmed by blinded experimenters.

[4] = tested on: mice subjected to one blunt TBI, pentylenetetrazol (PTZ); test: PTZ-induced seizure susceptibility after one blunt TBI (CCCI); type: in vivo, mouse; conditions: RTG at 1 mg/kg; PTZ 35 mg/kg s.c. fifth day post-TBI
Excerpt: Stimulation with PTZ induced the occurrence of clonic and tonic-clonic seizures in TBI-subjected mice.

sympathetic neuron = test: Action potential firing in a sympathetic neuron, current-clamp
Excerpt: Various currents are applied in “current-clamp” mode 44 ranging from 50 pA to −100 pA, and the resulting AP firing recorded.

CCOC(=O)Nc1ccc(NCc2ccc(F)cc2)cc1N [RTG, 2-amino-4-(4-fluorobenzylamino)-1-ethoxycarbonylaminobenzene]
percentage of time in awake state (mice subjected to rbTBI): roughly equivalent to that experienced by the Sham group | c-Fos expression, hippocampal CA1 (c-Fos): significantly less c-Fos than the TBI cohort | voltage dependence of M-channels (M-channels): shifting the voltage dependence of M-channels towards more negative potentials | occurrence of myoclonic seizures post-TBI [1]: significantly reduced the occurrence of myoclonic seizures | PTZ-induced seizure duration ([2]; RTG 1 mg/kg i.p. at 1-hour post-TBI): significantly reduced induced seizure duration | PTZ-induced seizure duration ([2]; RTG 1 mg/kg i.p. at 2 hours and 6 hours post-TBI): Lesser effects were observed | mice displaying post-traumatic seizures [3]: no animal treated with RTG post-TBI displayed seizures and zero | occurrence of PTZ-induced seizures [4]: completely blocked the occurrence of PTZ-induced seizures | action potential firing in response to stimuli (sympathetic neuron): Complete silencing of the neuron occurs
